PubChem BioAssay (NCI)
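Five compound concentrations were applied to cells in 96-well plates for 48 hours; endpoints were derived by simple linear interpolation of the resulting dose-response curve. GI50 marks 50% less growth. TGI: concentration producing complete growth inhibition.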

Legend:
Assay in all cases: growth of human tumour cells (NCI), 48 h
[1] = system: SK-MEL-5 melanoma
[2] = system: NCI-H226 lung
[3] = system: SR leukemia
[4] = system: HL-60(TB) leukemia
[5] = system: LOX IMVI melanoma
[6] = system: NCI-H522 lung
[7] = system: BT-549 breast
[8] = system: UACC-257 melanoma
[9] = system: A498 renal
[10] = system: HT29 colon
[11] = system: U251 CNS
[12] = system: TK-10 renal
[13] = system: SK-OV-3 ovarian
[14] = system: SW-620 colon
[15] = system: T-47D breast
[16] = system: OVCAR-4 ovarian
[17] = system: SF-295 CNS
[18] = system: SK-MEL-2 melanoma
[19] = system: COLO 205 colon
[20] = system: UO-31 renal
[21] = system: HOP-62 NSCLC
[22] = system: DU-145 prostate
[23] = system: NCI-H23 lung
[24] = system: EKVX NSCLC
[25] = system: RPMI-8226 leukemia
[26] = system: IGROV1 ovarian
[27] = system: CCRF-CEM leukemia
[28] = system: SNB-19 CNS
[29] = system: HOP-92 NSCLC

CCc1ccc(C(=O)/C=C/C23c4ccccc4C(c4ccccc42)C2C(=O)NC(=O)C23)cc1 (configuration not stated)
GI50 [1]: 1650 nM
TGI [1]: 3210 nM
GI50 [2]: 2680 nM
TGI [2]: 9120 nM
GI50 [3]: 1370 nM
TGI [3]: 4360 nM
GI50 [4]: 69.7 nM
TGI [4]: 1930 nM
GI50 [5]: 1670 nM
TGI [5]: 3160 nM
GI50 [6]: 1960 nM
TGI [6]: 4890 nM
GI50 [7]: 1730 nM
TGI [7]: 3670 nM
GI50 [8]: 1900 nM
TGI [8]: 4150 nM
GI50 [9]: 1710 nM
TGI [9]: 3140 nM
GI50 [10]: 2200 nM
TGI [10]: 4750 nM
GI50 [11]: 1750 nM
TGI [11]: 3170 nM
GI50 [12]: 2620 nM
TGI [12]: 6470 nM
GI50 [13]: 2840 nM
TGI [13]: 7540 nM
GI50 [14]: 2370 nM
TGI [14]: 5720 nM
GI50 [15]: 2280 nM
TGI [15]: 6400 nM
GI50 [16]: 2900 nM
TGI [16]: 11900 nM
GI50 [17]: 2450 nM
TGI [17]: 5730 nM
GI50 [18]: 2230 nM
TGI [18]: 4650 nM
GI50 [19]: 2130 nM
TGI [19]: 4020 nM
GI50 [20]: 1470 nM
TGI [20]: 5550 nM
GI50 [21]: 2870 nM
TGI [21]: 8820 nM
GI50 [22]: 1660 nM
TGI [22]: 3080 nM
GI50 [23]: 2090 nM
TGI [23]: 4150 nM
GI50 [24]: 1600 nM
TGI [24]: 3560 nM
GI50 [25]: 1870 nM
TGI [25]: 4600 nM
GI50 [26]: 1760 nM
TGI [26]: 4100 nM
GI50 [27]: 2660 nM
TGI [27]: 11000 nM
GI50 [28]: 1930 nM
TGI [28]: 3960 nM
GI50 [29]: 1730 nM
